Reference: ChEMBL document CHEMBL5131493, “Synthesis and evaluation of RNase L-binding 2-aminothiophenes as anticancer agents” (Bioorg Med Chem, 2022)
Calls of active or inactive are those of the source. The calls are words filed in the database; no cut-off is given here.

Assays:
JAR [1] = test: Antiproliferative activity against human JAR cells assessed as cell growth inhibition at 10 uM incubated for 72 hrs by MTT assay relative to control; type: functional
Homo sapiens = species: Homo sapiens; test: Binding affinity to RNase L (unknown origin) expressed in Escherichia coli BL21 (DE3) assessed as thermal stability by measuring melting temperature at 60 uM incubated for 50 mins by NanoDSF analysis
A549 [2] = test: Antiproliferative activity against human A549 cells assessed as cell growth inhibition at 10 uM incubated for 72 hrs by MTT assay relative to control; type: functional
K562 [3] = test: Antiproliferative activity against human K562 cells assessed as cell growth inhibition at 10 uM incubated for 72 hrs by MTT assay relative to control; type: functional
MCF7 [4] = test: Antiproliferative activity against human MCF7 cells assessed as cell growth inhibition at 10 uM incubated for 72 hrs by MTT assay relative to control; type: functional
MCF7 [5] = test: Antiproliferative activity against human MCF7 cells assessed as cell growth inhibition incubated for 72 hrs by MTT assay; type: functional, cell-based; conditions: MCF7, 72 h
JAR [6] = test: Antiproliferative activity against human JAR cells assessed as cell growth inhibition incubated for 72 hrs by MTT assay; type: functional, cell-based
A549 [7] = test: Antiproliferative activity against human A549 cells assessed as cell growth inhibition incubated for 72 hrs by MTT assay; type: functional, cell-based; conditions: A549, 72 h
K562 [8] = test: Antiproliferative activity against human K562 cells assessed as cell growth inhibition incubated for 72 hrs by MTT assay; type: functional, cell-based; conditions: K562, 72 h
JAR [9] = test: Induction of apoptosis in human JAR cells assessed as fold increase in cleaved PARP level at 10 uM incubated for 24 hrs by Western blot analysis; type: functional
JAR [10] = test: Inhibition of colony formation in human JAR cells assessed as cell reproductive death at upto 5 uM measured after 3 days by Giemsa staining based microscopic analysis; type: functional; conditions: time 3.0 day
JAR [11] = test: Inhibition of colony formation in human JAR cells measured after 3 days by Giemsa staining based microscopic analysis; type: functional, cell-based; conditions: time 3.0 day, DDE = dose-dependent effect
JAR [12] = test: Inhibition of cell migration in human JAR cells at 5 uM measured after 72 hrs by scratch wound healing assay relative to control; type: functional
JAR [13] = test: Induction of apoptosis in human JAR cells assessed as necrotic cells at 10 uM measured after 72 hrs by Annexin V-FITC/PI staining based flow cytometry (reference value: 0.22%); type: functional
JAR [14] = test: Induction of apoptosis in human JAR cells assessed as early apoptotic cells at 10 uM measured after 72 hrs by Annexin V-FITC/PI staining based flow cytometry (reference value: 8.24%); type: functional
JAR [15] = test: Induction of apoptosis in human JAR cells assessed as live cells at 10 uM measured after 72 hrs by Annexin V-FITC/PI staining based flow cytometry (reference value: 79.87%); type: functional
JAR [16] = test: Induction of apoptosis in human JAR cells assessed as necrotic cells at 5 uM measured after 72 hrs by Annexin V-FITC/PI staining based flow cytometry (reference value: 0.22%); type: functional
JAR [17] = test: Induction of apoptosis in human JAR cells assessed as late apoptotic cells at 5 uM measured after 72 hrs by Annexin V-FITC/PI staining based flow cytometry (reference value: 11.67%); type: functional
JAR [18] = test: Induction of apoptosis in human JAR cells assessed as early apoptotic cells at 5 uM measured after 72 hrs by Annexin V-FITC/PI staining based flow cytometry (reference value: 8.24%); type: functional
JAR [19] = test: Induction of apoptosis in human JAR cells assessed as late apoptotic cells at 10 uM measured after 72 hrs by Annexin V-FITC/PI staining based flow cytometry (reference value: 11.67%); type: functional
JAR [20] = test: Induction of apoptosis in human JAR cells assessed as live cells at 5 uM measured after 72 hrs by Annexin V-FITC/PI staining based flow cytometry (reference value: 79.87%); type: functional
JAR [21] = test: Induction of apoptosis in human JAR cells assessed as fold increase in PARP cleavage at 5 to10 uM incubated for 24 hrs by Western blot analysis; type: functional; conditions: dose 10 µM

| ΔTm (Homo sapiens) [°C] | IC50 (MCF7 [5]) [µM] | IC50 (A549 [7]) [µM] | IC50 (K562 [8]) [µM] | SMILES | inhibition at 10 µM (JAR [1]) [%] | inhibition at 10 µM (A549 [2]) [%] | inhibition at 10 µM (K562 [3]) [%] | inhibition at 10 µM (MCF7 [4]) [%] | IC50 (JAR [6]) [µM] | further results |
| --- | --- | --- | --- | --- | --- | --- | --- | --- | --- | --- |
| 0.5 | – | – | – | CCOC(=O)C1=C(Nc2ccccc2)S/C(=C\c2cc(OC)ccc2OC)C1=O | 38.1 | < 10 | 30.7 | < 10 | – | – |
| 0.8 | 13.7 | 9.8 | 7 | CCOC(=O)C1=C(Nc2ccccc2)S/C(=C\c2ccc(C(F)(F)F)cc2)C1=O | 68.7 | – | – | 41.3 | 5.9 | – |
| – | 20.7 | 23.9 | 7.2 | CCOC(=O)C1=C(Nc2cccc([N+](=O)[O-])c2)S/C(=C\c2ccc[nH]2)C1=O | 57.4 | – | – | 27.4 | 10.1 | – |
| 1 | – | – | – | CCOC(=O)C1=C(Nc2ccccc2)S/C(=C\c2cccnc2)C1=O | 32.1 | < 10 | < 10 | < 10 | – | – |
| – | 30.5 | > 100 | 46.8 | CCOC(=O)C1=C(Nc2ccccc2)S/C(=C\c2ccc(C(=O)OCC)[nH]2)C1=O | 60.1 | < 10 | 18.6 | – | 10.6 | – |
| 1.4 | 6.4 | 18 | 5.9 | CCOC(=O)C1=C(Nc2ccccc2)S/C(=C\C2CCCCC2)C1=O | 95.2 | – | – | 45.3 | 3.7 | fold change (FC) (JAR [9]): >1.5; inhibition (JAR [10]): Active; inhibition (JAR [11]): Dde; inhibition at 5 µM (JAR [12]): 42% |
| – | – | – | – | CCOC(=O)C1=C(Nc2ccccc2)S/C(=C\c2cc[nH]c2)C1=O | 19.5 | < 10 | 18.9 | < 10 | – | – |
| 0.8 | 5.2 | 8 | 1.6 | CCOC(=O)C1=C(Nc2ccccc2)S/C(=C\c2ccc(F)c(C#N)c2)C1=O | 99.9 | – | – | – | 1.5 | Activity (JAR [13]): 6.8%; Activity (JAR [14]): 5.06%; Activity (JAR [15]): 32.48%; fold change (FC) (JAR [9]): >2; Activity (JAR [16]): 1.88%; Activity (JAR [17]): 27.47%; inhibition (JAR [10]): Active; Activity (JAR [18]): 23.02%; Activity (JAR [19]): 55.7%; Activity (JAR [20]): 47.62%; inhibition (JAR [11]): Dde; inhibition at 5 µM (JAR [12]): 85%; fold change (FC) (JAR [21]): >2 |
| – | 27.1 | 43.2 | 36.3 | CCOC(=O)C1=C(Nc2ccccc2Br)S/C(=C\c2ccc[nH]2)C1=O | 62.7 | – | 20.5 | 29.4 | 8.9 | – |
| – | – | – | – | CCOC(=O)C1=C(Nc2ccccc2)S/C(=C\c2ccc(OC)cc2)C1=O | 32.9 | 17.5 | 9.6 | 14.7 | – | – |
| -1.3 | > 100 | > 100 | 10.4 | CCOC(=O)C1=C(Nc2ccccc2)S/C(=C\c2ccc(O)c(OC)c2)C1=O | 49.7 | 24.2 | – | 23.2 | 8.9 | – |
| 0.8 | – | – | – | CCOC(=O)C1=C(Nc2ccccc2)S/C(=C\c2ccccc2)C1=O | 20.3 | 29.6 | 42.9 | 23.6 | – | – |
| – | – | – | – | CCOC(=O)C1=C(Nc2ccccc2)S/C(=C\c2ccc(Br)c(O)c2)C1=O | 39.8 | 13.6 | 22 | 16.4 | – | – |
| – | – | – | – | CCOC(=O)C1=C(Nc2ccccc2)S/C(=C\c2cc3ccncc3[nH]2)C1=O | 26.3 | 17.1 | 22.8 | 18.2 | – | – |
| – | 48 | > 100 | 71 | CCOC(=O)C1=C(Nc2ccccc2)S/C(=C\c2ccc[nH]2)C1=O | 49.2 | 23.5 | 16.2 | 18.3 | 9.5 | – |
| – | – | – | – | CCOC(=O)C1=C(Nc2ccccc2)S/C(=C\c2ccc(C(=O)O)cc2)C1=O | 16.8 | 11.6 | 27.5 | < 10 | – | – |
| 0.7 | – | – | – | CCOC(=O)C1=C(Nc2ccccc2)SC(=C2CCCCC2)C1=O | 15.5 | – | 18.7 | – | – | – |
| 0.5 | – | 35.8 | 10.7 | CCOC(=O)C1=C(Nc2ccccc2)SC(=C2CN(C(=O)OC(C)(C)C)C2)C1=O | – | – | – | 29.6 | 23.2 | – |
| 0.8 | – | – | – | CCOC(=O)C1=C(Nc2ccccc2)S/C(=C\c2ccccc2C(F)(F)F)C1=O | 29 | < 10 | 19.7 | < 10 | – | – |
| – | 15.1 | 16.9 | 8.8 | CCOC(=O)C1=C(Nc2ccccc2)S/C(=C\c2ccccc2O)C1=O | 89.4 | – | – | – | 8 | – |
| – | 25.2 | > 100 | 5.2 | CCOC(=O)C1=C(Nc2ccccc2)S/C(=C\c2ccc(O)c(O)c2)C1=O | 48.7 | 30.7 | – | 38.1 | 6.1 | – |
| – | – | – | – | CCOC(=O)C1=C(Nc2ccc(Br)cc2)S/C(=C\c2ccc[nH]2)C1=O | 41.5 | < 10 | 17 | < 10 | 27 | – |
| 0.7 | 18.1 | 17 | 4.5 | CCOC(=O)C1=C(Nc2ccccc2)SC(=C2CCC2)C1=O | 70.2 | – | – | 40.4 | 8.4 | – |
